Source: ChEMBL document CHEMBL1132351, “Synthesis, in vitro pharmacology, and molecular modeling of very potent tacrine-huperzine A hybrids as acetylcholinesterase inhibitors of potential interest for the treatment of Alzheimer's disease” (J Med Chem, 1999)
Several values for one entry are separate records, joined by “and”; a condition that tells them apart may be missing. Equal values may be shown once.

Experiments:
Cholinesterase = Cholinesterase (Homo sapiens, UniProt P06276)
Description: Inhibition of butyrylcholinesterase (BChE) activity in human serum

Acetylcholinesterase = biological target: T1, Acetylcholinesterase (Bos taurus, UniProt P23795)
T1 sequence (P23795 whole entry): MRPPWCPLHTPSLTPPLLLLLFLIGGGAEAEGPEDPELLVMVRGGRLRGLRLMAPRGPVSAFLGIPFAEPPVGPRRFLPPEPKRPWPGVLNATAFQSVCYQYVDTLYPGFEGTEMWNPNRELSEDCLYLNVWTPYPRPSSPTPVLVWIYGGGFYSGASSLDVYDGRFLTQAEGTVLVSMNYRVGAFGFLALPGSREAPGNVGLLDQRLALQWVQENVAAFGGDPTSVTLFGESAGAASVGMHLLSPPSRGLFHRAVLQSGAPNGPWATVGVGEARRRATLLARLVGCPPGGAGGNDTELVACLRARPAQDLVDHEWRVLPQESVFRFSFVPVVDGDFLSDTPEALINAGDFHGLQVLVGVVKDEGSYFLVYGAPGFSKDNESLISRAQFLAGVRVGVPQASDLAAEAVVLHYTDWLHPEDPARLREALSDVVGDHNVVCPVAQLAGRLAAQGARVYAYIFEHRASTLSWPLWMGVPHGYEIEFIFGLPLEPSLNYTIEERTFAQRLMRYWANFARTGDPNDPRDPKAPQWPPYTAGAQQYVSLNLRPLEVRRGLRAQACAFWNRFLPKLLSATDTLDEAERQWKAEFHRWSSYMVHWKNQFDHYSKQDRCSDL
Description: Inhibition of acetylcholinesterase (AChE)activity in bovine erythrocytes

[1] = Drug concentration that reaches 50% of antagonism index (AI); No reversion at 10 uM concentration; assay type: functional
[2] = Drug concentration that reaches 50% of antagonism index (AI); No reversion at 10 uM concentration.; assay type: functional

Cholinesterase, sequence (P06276 whole entry): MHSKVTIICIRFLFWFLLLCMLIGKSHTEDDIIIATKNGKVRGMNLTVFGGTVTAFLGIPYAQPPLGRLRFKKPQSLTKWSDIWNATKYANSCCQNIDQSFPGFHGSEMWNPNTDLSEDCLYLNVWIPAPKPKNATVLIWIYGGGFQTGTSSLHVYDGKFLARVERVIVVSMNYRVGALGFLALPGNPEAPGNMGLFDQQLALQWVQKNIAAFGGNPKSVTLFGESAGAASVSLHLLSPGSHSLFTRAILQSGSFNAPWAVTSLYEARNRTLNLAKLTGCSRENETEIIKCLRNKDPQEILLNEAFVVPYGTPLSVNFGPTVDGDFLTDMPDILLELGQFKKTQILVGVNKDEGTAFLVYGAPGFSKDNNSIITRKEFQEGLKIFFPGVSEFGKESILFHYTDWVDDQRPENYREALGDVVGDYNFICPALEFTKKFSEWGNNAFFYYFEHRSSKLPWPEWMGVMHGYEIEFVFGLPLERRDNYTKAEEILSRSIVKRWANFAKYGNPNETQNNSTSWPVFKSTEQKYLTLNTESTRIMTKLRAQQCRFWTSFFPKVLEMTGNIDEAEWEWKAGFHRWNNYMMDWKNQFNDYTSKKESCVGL

| SMILES | IC50 (Cholinesterase) | IC50 (Acetylcholinesterase) | AI50 [1] | AI50 [2] |
| --- | --- | --- | --- | --- |
| CCC1=CC2Cc3nc4ccccc4c(N)c3C(C1)C2 (single isomer, unassigned; (+)) | 109 nM | 888 nM | – | – |
| CC1=CC2Cc3nc4ccccc4c(N)c3C(C1)C2 (racemic) | 126 nM | 65 nM | – | – |
| CC(C)C1=CC2Cc3nc4ccccc4c(N)c3C(C1)C2 (racemic) | – | 103 nM | – | – |
| CCC1=CC2Cc3nc4cc(C)ccc4c(N)c3C(C1)C2 (centres undefined) [listing 1 of 2 here] | 115 nM and 347 nM | – | – | – |
| CC1=CC2Cc3nc4ccccc4c(N)c3C(C1)C2 (single isomer, unassigned; (+)) | 316 nM | 329 nM | – | – |
| CCC1=CC2Cc3nc4ccccc4c(N)c3C(C1)C2 (single isomer, unassigned; (-)) | 63.3 nM | 27.4 nM | – | – |
| CC1=CC2Cc3nc4cccc(F)c4c(N)c3C(C1)C2 (racemic) | 543 nM | 31.4 nM | – | – |
| CCC1=CC2Cc3nc4ccccc4c(N)c3C(C1)C2 (racemic) | 79.3 nM | 38.5 nM | – | – |
| CCC1=CC2Cc3nc4cccc(C)c4c(N)c3C(C1)C2 (racemic) | 512 nM | 29.8 nM | – | – |
| CC1=CC2Cc3nc4ccccc4c(N)c3C(C1)C2 (single isomer, unassigned; (-)) | 89 nM | – | – | – |
| CCC1=CC2Cc3nc4cc(C)ccc4c(N)c3C(C1)C2 (racemic) | 208 nM | 12 nM | – | – |
| CCC1=CC2Cc3nc4cc(C)ccc4c(N)c3C(C1)C2 (centres undefined) [listing 2 of 2 here] | – | – | No reversion | – |
| C=CCC1=CC2Cc3nc4ccccc4c(N)c3C(C1)C2 (racemic) | – | 150 nM | – | No reversion at 10 uM concentration |
| C/C=C1\[C@H]2C=C(C)C[C@]1(N)c1ccc(=O)[nH]c1C2 [HUPERZINE A] | > 100000 nM | – | – | – |
| CC(C)(C)C1=CC2Cc3nc4ccccc4c(N)c3C(C1)C2 (racemic) | – | 267 nM | – | – |
| Nc1c2c(nc3ccccc13)CC1C=C(c3ccccc3)CC2C1 (racemic) | – | 126 nM | – | No reversion |
| CC1=C[C@@H]2Cc3nc4cc(F)ccc4c(N)c3[C@H](C1)C2 (racemic) | 197 nM | 8.5 nM | – | – |
| CC1=CC2Cc3nc4cc(C)ccc4c(N)c3C(C1)C2 (racemic) | 449 nM | – | – | – |
